This test deals with T1, δ receptor (delta opioid receptor) (Rattus norvegicus, UniProt P33533).
T1 construct: Rat Brain Membranes were Used as a Receptor Preparation; from tissue; host or cells: rat brain membranes
The test can be described thus: δ receptor binding test (3H-DPDPE displacement). The following applies: rat brain membranes, 3H-DPDPE 1.5 nM, 25° C., 70 minutes; read-out: IC50 (concentration at which binding of 3H-DPDPE is inhibited by 50%). On the procedure:
Rat Brain Membranes were Used as a Receptor Preparation.
^3H-DPDPE ([D-Pen^2,D-Pen^5]-Enkephalin) was used as ^3H-labeled ligand.
Binding reaction using the ^3H-labeled ligand was carried out by the following method.
Preparation of Receptor Membranes:
Rat brain was homogenized in 50 mM Tris-HCl buffer (pH 7.4) containing 10 mM MgCl2 and 1 mM EDTA, and centrifuged at 48,000×g for 20 min, and the precipitate was washed once with Tris-HCl buffer. The washed precipitate was suspended in 50 mM Tris-HCl buffer (pH 7.4) containing 10 mM MgCl2 and 1 mM EDTA, to obtain a membrane preparation.
Delta Opioid Receptor Binding Test:
The membrane preparation (1 mg protein/ml), H-DPDPE (1.5 nM) and a test drug were reacted at 25° C. for 70 minutes. After completion of the reaction, the reaction mixture was filtered by suction through a glass filter (GF/B) treated with 0.3% polyethylene imine, and the glass filter was washed three times with 50 mM Tris-HCl buffer (pH 7.4) containing 10 mM MgCl2 and 1 mM EDTA. After the washing, scintillation cocktail was added to the filters, and the radioactivity of the filter was measured in a liquid scintillation counter.
The amount of ^3H-DPDPE bound when the reaction was carried out in the presence of 10 μM naltrindole was taken as the degree of nonspecific binding of ^3H-DPDPE, and the difference between the total degree of ^3H-DPDPE binding and the degree of nonspecific ^3H-DPDPE binding was taken as the degree of specific ^3H-DPDPE binding. An inhibition curve was obtained by reacting a definite concentration (1.5 nM) of ^3H-DPDPE with various concentrations of each test drug under the conditions described above. A concentration of the test drug at which binding of ^3H-DPDPE is inhibited by 50% (IC50) was determined from the inhibition curve.

The values below come from patent US7951811B2, “Pyrrolo[2,3-D]pyrimidine derivatives substituted with a cyclic amino group” (Taisho Pharmaceutical Co., Ltd., priority 2004, dated 2011).

T1 sequence (P33533 whole entry): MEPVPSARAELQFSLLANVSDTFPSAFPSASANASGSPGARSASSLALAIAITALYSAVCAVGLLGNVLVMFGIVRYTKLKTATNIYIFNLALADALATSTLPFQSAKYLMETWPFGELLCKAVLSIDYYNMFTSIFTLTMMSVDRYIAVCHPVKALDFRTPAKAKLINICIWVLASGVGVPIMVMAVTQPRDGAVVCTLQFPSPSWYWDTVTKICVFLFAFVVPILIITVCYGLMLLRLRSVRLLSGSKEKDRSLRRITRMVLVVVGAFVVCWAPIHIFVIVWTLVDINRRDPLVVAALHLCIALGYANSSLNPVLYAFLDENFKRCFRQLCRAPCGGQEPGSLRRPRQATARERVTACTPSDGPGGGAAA

Regarding `Cc1cc(N2CCC(CC(=O)O)CC2)c2c(C)cn(-c3c(C)cc(Br)cc3C)c2n1` [Compound 1-004, {1-[1-(4-bromo-2,6-dimethyl-phenyl)-3,6-dimethyl-1H-pyrrolo[2,3-b]pyridin-4-yl]-piperidin-4-yl}-acetic acid], the IC50 is at most 500 nM. The same measure for `Cc1cc(N2CCC(CCS(=O)(=O)O)CC2)c2c(C)cn(-c3c(C)cc(Br)cc3C)c2n1` [Compound 1-048, 2-{1-[1-(4-bromo-2,6-dimethyl-phenyl)-3,6-dimethyl-1H-pyrrolo[2,3-b]pyridin-4-yl]-piperidin-4-yl}-ethanesulfonic acid]: at most 500 nM. Turning to `Cc1cc(N2CCC(CC(=O)O)CC2)c2c(C)cn(-c3c(Br)cc(Cl)cc3Br)c2n1` [Compound 1-012, {1-[1-(2,6-dibromo-4-chloro-phenyl)-3,6-dimethyl-1H-pyrrolo[2,3-b]pyridin-4-yl]-piperidin-4-yl}-acetic acid], the IC50 is at most 500 nM. As to `Cc1cc(N2CCC(CCC(=O)O)CC2)c2c(C)cn(-c3c(Cl)cc(Cl)cc3Cl)c2n1` [Compound 1-026, 3-{1-[3,6-dimethyl-1-(2,4,6-trichloro-phenyl)-1H-pyrrolo[2,3-b]pyridin-4-yl]piperidin-4-yl}-propionic acid], the IC50 is at most 500 nM. For `Cc1nc(N2CCC(CCC(=O)O)CC2)c2c(C)cn(-c3c(C)cc(Br)cc3C)c2n1` [Compound 1-018, 3-{1-[7-(4-bromo-2,6-dimethyl-phenyl)-2,5-dimethyl-7H-pyrrolo[2,3-d]pyrimidin-4-yl]-piperidin-4-yl}-propionic acid], the IC50 is at most 500 nM.

Turning to `Cc1cc(N2CCC(CC(=O)O)CC2)c2c(C)cn(-c3ccc(Br)cc3Br)c2n1` [Compound 1-016, {1-[1-(2,4-dibromo-phenyl)-3,6-dimethyl-1H-pyrrolo[2,3-b]pyridin-4-yl]-piperidin-4-yl}-acetic acid], the IC50 is at most 500 nM. With `Cc1cc(N2CCC(CCC(=O)O)CC2)c2c(C)cn(-c3c(C)cc(Cl)cc3C)c2n1` [Compound 1-022, 3-{1-[1-(4-chloro-2,6-dimethyl-phenyl)-3,6-dimethyl-1H-pyrrolo[2,3-b]pyridin-4-yl]-piperidin-4-yl}-propionic acid] the figure was at most 500 nM. With `Cc1cc(N2CCC(CC(=O)O)CC2)c2c(C)cn(-c3c(C)cc(Cl)cc3C)c2n1` [Compound 1-006, {1-[1-(4-chloro-2,6-dimethyl-phenyl)-3,6-dimethyl-1H-pyrrolo[2,3-b]pyridin-4-yl]-piperidin-4-yl}-acetic acid], the IC50 was at most 500 nM. As to `Cc1cc(N2CCC(CP(=O)(O)O)CC2)c2c(C)cn(-c3c(C)cc(Br)cc3C)c2n1` [Compound 1-045, {1-[1-(4-bromo-2,6-dimethyl-phenyl)-3,6-dimethyl-1H-pyrrolo[2,3-b]pyridin-4-yl]-piperidin-4-ylmethyl}-phosphonic acid], the IC50 is at most 500 nM.

With `Cc1cc(N2CCC(CC(=O)O)CC2)c2c(C)c(C)n(-c3c(C)cc(Br)cc3C)c2n1` [Compound 1-003, {1-[1-(4-bromo-2,6-dimethyl-phenyl)-2,3,6-trimethyl-1H-pyrrolo[2,3-b]pyridin-4-yl]-piperidin-4-yl}-acetic acid], the IC50 is at most 500 nM. With `Cc1cc(N2CCC(CCC(=O)O)CC2)c2c(C)cn(-c3c(Cl)cc(Br)cc3Cl)c2n1` [Compound 1-025, 3-{1-[1-(4-bromo-2,6-dichloro-phenyl)-3,6-dimethyl-1H-pyrrolo[2,3-b]pyridin-4-yl]-piperidin-4-yl}-propionic acid] the figure was at most 500 nM.

In the case of `Cc1nc(N2CCC(CC(=O)O)CC2)c2c(C)cn(-c3c(C)cc(Br)cc3C)c2n1` [Compound 1-002, {1-[7-(4-bromo-2,6-dimethyl-phenyl)-2,5-dimethyl-7H-pyrrolo[2,3-d]pyrimidin-4-yl]-piperidin-4-yl}-acetic acid], the IC50 was at most 500 nM. As for `Cc1cc(N2CCC(CCC(=O)O)CC2)c2c(C)c(C)n(-c3c(C)cc(Br)cc3C)c2n1` [Compound 1-019, 3-{1-[1-(4-bromo-2,6-dimethyl-phenyl)-2,3,6-trimethyl-1H-pyrrolo[2,3-b]pyridin-4-yl]-piperidin-4-yl}-propionic acid], the IC50 is at most 500 nM. `Cc1cc(N2CCC(CCCC(=O)O)CC2)c2c(C)c(C)n(-c3c(C)cc(Br)cc3C)c2n1` [Compound 1-032, 4-{1-[1-(4-bromo-2,6-dimethyl-phenyl)-2,3,6-trimethyl-1H-pyrrolo[2,3-b]pyridin-4-yl]-piperidin-4-yl}-butyric acid]: the IC50 is at most 500 nM. Take `Cc1cc(N2CCC(CCC(=O)O)CC2)c2c(C)cn(-c3c(Br)cc(Cl)cc3Br)c2n1` [Compound 1-027, 3-{1-[1-(2,6-dibromo-4-chloro-phenyl)-3,6-dimethyl-1H-pyrrolo[2,3-b]pyridin-4-yl]-piperidin-4-yl}-propionic acid]: the IC50 was at most 500 nM. For the molecule `Cc1nc(N2CCC(CC(=O)O)CC2)c2c(C)c(C)n(-c3c(C)cc(Br)cc3C)c2n1` [Compound 1-001, {1-[7-(4-bromo-2,6-dimethyl-phenyl)-2,5,6-trimethyl-7H-pyrrolo[2,3-d]pyrimidin-4-yl]-piperidin-4-yl}-acetic acid], the IC50 is at most 500 nM.

As for `Cc1cc(N2CCC(CCC(=O)O)CC2)c2c(C)c(C)n(-c3c(C)cc(Cl)cc3C)c2n1` [Compound 1-021, 3-{1-[1-(4-chloro-2,6-dimethyl-phenyl)-2,3,6-trimethyl-1H-pyrrolo[2,3-b]pyridin-4-yl]-piperidin-4-yl}-propionic acid], the IC50 was at most 500 nM. Regarding `Cc1cc(N2CCC(CC(=O)O)CC2)c2c(C)cn(-c3c(Cl)cc(Cl)cc3Cl)c2n1` [Compound 1-011, {1-[3,6-dimethyl-1-(2,4,6-trichloro-phenyl)-1H-pyrrolo[2,3-b]pyridin-4-yl]-piperidin-4-yl}-acetic acid], the IC50 was at most 500 nM. The same measure for `Cc1cc(N2CCC(CCC(=O)O)CC2)c2c(C)cn(-c3c(C)cc(Br)cc3C)c2n1` [Compound 1-020, 3-{1-[1-(4-bromo-2,6-dimethyl-phenyl)-3,6-dimethyl-1H-pyrrolo[2,3-b]pyridin-4-yl]-piperidin-4-yl}-propionic acid]: at most 500 nM. Consider `Cc1cc(N2CCC(CS(=O)(=O)O)CC2)c2c(C)cn(-c3c(C)cc(Br)cc3C)c2n1` [Compound 1-047, {1-[1-(4-bromo-2,6-dimethyl-phenyl)-3,6-dimethyl-1H-pyrrolo[2,3-b]pyridin-4-yl]-piperidin-4-yl}-methanesulfonic acid], for which the IC50 was at most 500 nM.

On to `Cc1cc(N2CCC(CC(=O)O)CC2)c2c(C)c(C)n(-c3c(C)cc(Cl)cc3C)c2n1` [Compound 1-005, {1-[1-(4-chloro-2,6-dimethyl-phenyl)-2,3,6-trimethyl-1H-pyrrolo[2,3-b]pyridin-4-yl]-piperidin-4-yl}-acetic acid], for which the IC50 was at most 500 nM.
